Experiments:
Crabgrass (CG) [1] = assay: Pre-emergence herbicide test; assay type: in vivo, Digitaria sanquinalis; conditions: Digitaria sanguinalis, pre-emergence, 336 h; 8 lb/acre; two weeks after treatment
In short: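 Crabgrass (Digitaria sanquinalis) was surface seeded in 3' plastic pots of potting soil, covered with screened soil, and watered by sub-irrigation in greenhouse trays. Pots were seeded one day before spraying in a hood with a moving belt and fixed nozzle. Plants stayed in the greenhouse on sub-irrigation, and pre-emergence control was rated visually two weeks after treatment.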

Johnson grass (JG) [2] = assay: Pre-emergence herbicide test; assay type: in vivo, Sorgum helepense; conditions: Sorghum halepense, 336 h, 8 lb/acre, two weeks after treatment
In short: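 Visual injury or control rating two weeks post-treatment, after pre-emergence spray of 8 or 4 lbs active per acre (38 gal/acre) onto pots sown the previous day. Greenhouse watering by sub-irrigation only.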

Barnyard grass (BG) [3] = assay: Pre-emergence herbicide test; assay type: in vivo; conditions: Echinochloa crus-galli, 336 h, 8 lb/acre, two weeks after treatment
In short: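 Greenhouse pre-emergence spray test: pots seeded one day before treatment received compound at rates of 8 or 4 lb/acre (38 gal/acre). Visual injury/control scores for Echinochloa crus-galli taken at two weeks, with watering by sub-irrigation only.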

Amaranth pigweed (PW) [4] = assay: Pre-emergence herbicide test; assay type: in vivo, Amaranthus retroflexus; conditions: 336 h, 8 lb/acre, two weeks after treatment
In short: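 Visual injury or control ratings were made at two weeks on pre-emergence pots, sub-irrigated in the greenhouse. Seeds were sown a day before a hood spray delivering 8 lbs/acre (or 4 lbs/acre) of compound in 38 gallons per acre.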

Turnip (TP) [5] = assay: Pre-emergence herbicide test; assay type: in vivo, Brassica sp.; conditions: Brassica rapa, pre-emergence, 336 h; 8 lb/acre; two weeks after treatment
In short: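 In this pre-emergence greenhouse test, turnip was seeded on the surface of potting soil in 3' plastic pots, lightly covered with screened soil, and watered from below. One day later the pots were sprayed in a belt-fed spray hood. Watering continued only by sub-irrigation, and percent control was visually scored two weeks after treatment.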

Cotton (CT) [6] = assay: Pre-emergence herbicide test; assay type: in vivo, Gossypium hirsutum var. DPL smooth leaf; conditions: Gossypium hirsutum, 336 h, 8 lb/acre, two weeks after treatment
In short: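 Visual injury/control ratings were taken at two weeks post-spray. Pots seeded a day earlier received compound pre-emergence at 8 lbs/acre, or 4 lbs/acre, in a 38 gallon/acre spray volume, and were then held in the greenhouse, watered only from below.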

Corn (CN) [7] = assay: Pre-emergence herbicide test; assay type: in vivo; conditions: Zea mays, 336 h, 8 lb/acre, two weeks after treatment
In short: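 Visual injury/control ratings were made 2 weeks post-spray on corn pots seeded (4 seeds, seed-diameter depth) the day before treatment. Application was a belt-hood spray of 38 gal/acre delivering 8 lbs active per acre, with a 4 lbs/acre rate also formulated. Watering was by sub-irrigation throughout.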

Bean (BN) [8] = assay: Pre-emergence herbicide test; assay type: in vivo, Phaseolus vulgaris var. Black Valentine; conditions: Phaseolus vulgaris, 336 h, 8 lb/acre, two weeks after treatment
In short: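 Visual injury/control ratings were taken two weeks post-spray on sub-irrigated Phaseolus vulgaris var. Black Valentine. Pots were sown a day before treatment. Pre-emergence spray delivered 8 lbs actual compound per acre (or 4 lbs/acre) at 38 gallons per acre.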

Crabgrass (CG) [9] = assay: Post-emergence herbicide test; assay type: in vivo, Digitaria sanquinalis; conditions: Digitaria sanguinalis, post-emergence, 336 h; 8 lb/acre; two weeks after treatment
In short: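 Crabgrass (Digitaria sanquinalis) was surface seeded individually in 3' plastic pots of potting soil, covered with screened soil, and watered by sub-irrigation in greenhouse trays. Planting was staggered so seedlings reached the target stage together. Post-emergence sprays were applied in a hood with a removable belt and fixed nozzle, and control was visually rated two weeks after treatment.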

[10] = test system: Yellow foxtail grass (YF); assay: Post-emergence herbicide test; assay type: in vivo, Setaria glauca; conditions: Setaria, 336 h, 8 lb/acre, two weeks after treatment
Protocol: (§1) Yellow foxtail grass (YF)--Setaria glauca
(§2) All crop and weed species were planted individually in 3' plastic pots containing potting soil. Four seeds each of corn, cotton, and snapbeans were seeded to a depth equal to the diameter of the seed. All other species were surface seeded and sprinkled with screened soil in an amount sufficient to cover the seed. Immediately after planting, all pots were watered by sub-irrigation in greenhouse trays. Pots for the pre-emergence phase were seeded one day before treatment.
Planting dates for the post-emergence phase were varied so that all seedlings would reach the desired stage of development simultaneously. The proper stage of seedling development for treatment in the post-emergence phase is as follows:
(§3) Compounds were tested at rates of application equivalent to 8 lbs. of actual compound per acre in a spray volume of 38 gallons per acre. Spray hood constants required to deliver the above volume are as follows:
(§4) Formulations for spray applications were prepared in 50 ml volumes with the following three components:
(§5) Formulations for the 4 lbs/acre rate were prepared by adjusting the amount of active ingredient accordingly.
(§6) Spray applications were made in a hood containing a removable belt and fixed spray nozzle. For passage through the spray hood, one pot of each specie (pre-emergence phase) was placed on the rear half of the flat. Treatments were removed to the greenhouse after spraying. Watering during the observation period was done only by sub-irrigation.
(§7) Two weeks after treatment, pre- and post-emergence injury or control was visually rated, and the results were as shown in the following tables. Pre-emergence data are provided in TABLE III and post-emergence data are provided in TABLE IV, for compounds having the formula illustrated in TABLE I. Correspondingly, pre-emergence and post-emergence data, respectively, are set forth in TABLES V AND VI, for compounds having the formula illustrated in TABLE II.

Johnson grass (JG) [11] = assay: Post-emergence herbicide test; assay type: in vivo, Sorgum helepense; conditions: Sorghum halepense, 336 h, 8 lb/acre, two weeks after treatment
In short: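 Visual injury or control scores taken 2 weeks after a post-emergence spray of pot-grown plants. Application was 8 lbs/acre (or 4 lbs/acre) in 38 gal/acre. Plants were held in the greenhouse with sub-irrigation only.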

Barnyard grass (BG) [12] = assay: Post-emergence herbicide test; assay type: in vivo; conditions: Echinochloa crus-galli, 336 h, 8 lb/acre, two weeks after treatment
In short: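 Greenhouse pot-grown barnyard grass seedlings sprayed post-emergence at 8 lbs active compound per acre (some at 4 lbs/acre) in 38 gallons per acre, then sub-irrigated. Injury or control rated visually two weeks after treatment.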

Amaranth pigweed (PW) [13] = assay: Post-emergence herbicide test; assay type: in vivo, Amaranthus retroflexus; conditions: 336 h, 8 lb/acre, two weeks after treatment
In short: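 Visual injury or control ratings were made two weeks after spraying, with greenhouse watering by sub-irrigation only. Treatment was post-emergence, when pigweed seedlings had 1 or 2 true leaves, at 8 lbs active compound per acre (4 lbs/acre formulations also made) in a 38 gallons-per-acre spray volume.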

Turnip (TP) [14] = assay: Post-emergence herbicide test; assay type: in vivo, Brassica sp.; conditions: Brassica rapa, post-emergence, 336 h; 8 lb/acre; two weeks after treatment
In short: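 A greenhouse post-emergence herbicide test on turnip. Seeds were sown on the surface of potting soil in 3' plastic pots, lightly covered with screened soil and watered from below. Planting was timed so seedlings had 1 or 2 true leaves above the cotyledons at spraying, done in a hood with a fixed nozzle. Control or injury was scored by eye after two weeks.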

Cotton (CT) [15] = assay: Post-emergence herbicide test; assay type: in vivo, Gossypium hirsutum var. DPL smooth leaf; conditions: Gossypium hirsutum, post-emergence, 336 h; 8 lb/acre; two weeks after treatment
In short: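 This greenhouse post-emergence test measured how well spray treatments controlled cotton. Seedlings of Gossypium hirsutum var. DPL smooth leaf, with expanded cotyledons and a first true leaf 1' in length, were sprayed with 50 ml formulations in a belt-fed spray hood. They were then returned to the greenhouse and watered only by sub-irrigation. Injury was scored visually as % control after two weeks.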

Corn (CN) [16] = assay: Post-emergence herbicide test; assay type: in vivo; conditions: Zea mays, 336 h, 8 lb/acre, two weeks after treatment
In short: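 Greenhouse seedlings grown in potting soil and sprayed post-emergence at 8 lbs compound/acre (formulations also made for 4 lbs/acre) in 38 gallons/acre spray volume. Watering by sub-irrigation only. Injury or control rated visually two weeks after treatment.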

Bean (BN) [17] = assay: Post-emergence herbicide test; assay type: in vivo, Phaseolus vulgaris var. Black Valentine; conditions: Phaseolus vulgaris, post-emergence, 336 h; 8 lb/acre; two weeks after treatment
In short: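 Bean seedlings (Phaseolus vulgaris var. Black Valentine) were grown in potting soil in 3' pots until the primary leaves expanded. They were then sprayed under a hood with a removable belt and fixed nozzle, using 50 ml formulations. Afterward they were returned to the greenhouse and watered only by sub-irrigation. Percent control was judged visually two weeks after treatment.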

[18] = test system: Yellow foxtail grass (YF); assay: Pre-emergence herbicide test; assay type: in vivo, Setaria glauca; conditions: Setaria, 336 h, 8 lb/acre, two weeks after treatment
Protocol: as §1, §2, §3, §4, §5, §6, §7

| SMILES | pest or weed control at 8966.8 g/ha (Crabgrass (CG) [1]) | pest or weed control at 8966.8 g/ha (Johnson grass (JG) [2]) | pest or weed control at 8966.8 g/ha (Barnyard grass (BG) [3]) | pest or weed control at 8966.8 g/ha (Amaranth pigweed (PW) [4]) | pest or weed control at 8966.8 g/ha (Turnip (TP) [5]) | pest or weed control at 8966.8 g/ha (Cotton (CT) [6]) | pest or weed control at 8966.8 g/ha (Corn (CN) [7]) | pest or weed control at 8966.8 g/ha (Bean (BN) [8]) | pest or weed control at 8966.8 g/ha (Crabgrass (CG) [9]) | pest or weed control at 8966.8 g/ha [10] | pest or weed control at 8966.8 g/ha (Johnson grass (JG) [11]) | pest or weed control at 8966.8 g/ha (Barnyard grass (BG) [12]) | pest or weed control at 8966.8 g/ha (Amaranth pigweed (PW) [13]) | pest or weed control at 8966.8 g/ha (Turnip (TP) [14]) | pest or weed control at 8966.8 g/ha (Cotton (CT) [15]) | pest or weed control at 8966.8 g/ha (Corn (CN) [16]) | pest or weed control at 8966.8 g/ha (Bean (BN) [17]) | pest or weed control at 8966.8 g/ha [18] |
| --- | --- | --- | --- | --- | --- | --- | --- | --- | --- | --- | --- | --- | --- | --- | --- | --- | --- | --- |
| CNC(=O)Nc1nnc(C)s1 [Example 18] | 10% | 10% | 20% | 10% | 50% | 30% | 30% | 50% | 20% | 20% | 20% | 20% | 40% | 40% | 50% | 20% | 50% |  |
| CCc1nnc(NC(=O)NC)s1 [Example 3, 1-Methyl-3-[5-Ethyl-2-(1,3,4-Thiadiazolyl)] Urea] | 10% | 20% | 10% | 70% | 70% | 50% | 100% | 90% | 20% | 20% | 20% | 20% | 100% | 100% | 90% | 20% | 60% |  |
| CC(C)NC(=O)Nc1nnc(C(F)(F)F)s1 [Example 11] | 20% | 30% | 10% |  | 10% | 80% | 80% | 30% | 50% | 20% | 30% | 40% | 100% | 60% | 60% | 40% | 50% | 10% |
| CCCNC(=O)Nc1nnc(C(F)(F)F)s1 [Example 10] | 20% | 20% | 10% |  | 10% | 80% | 50% | 80% | 50% | 20% | 30% | 40% | 100% | 60% | 60% | 40% | 50% | 20% |
| CNC(=O)Nc1nnc(-c2ccccc2)s1 [Example 34] | 10% | 20% | 10% |  | 20% | 40% | 10% | 80% | 10% | 30% | 30% | 10% | 20% | 40% | 50% | 50% | 60% | 20% |

— patent US4175081A, “5-Substituted thiadiazole ureas” (priority 1977, dated 1979)
